According to BindingDB's records for doi:10.1021/acs.jmedchem.8b01183 (2018):

Experiments:
[1] = molecular target: T1, Sigma intracellular receptor 2 (Rattus norvegicus, UniProt Q5U3Y7); assay: Displacement of [3H]-di-o-tolylguanidine from sigma2 receptor in rat liver membranes incubated for 120 mins by scintillation counting method
T1 sequence (Q5U3Y7 whole entry): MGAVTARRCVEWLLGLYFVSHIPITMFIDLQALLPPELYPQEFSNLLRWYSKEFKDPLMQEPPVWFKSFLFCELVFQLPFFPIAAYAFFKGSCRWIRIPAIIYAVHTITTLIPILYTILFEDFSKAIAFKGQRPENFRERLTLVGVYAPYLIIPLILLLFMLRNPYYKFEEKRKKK

[2] = molecular target: Sigma non-opioid intracellular receptor 1 (Cavia porcellus, UniProt Q60492); assay: Displacement of [3H]-(+)-pentazocine from sigma1 receptor in guinea pig brain cortex membranes incubated for 120 mins by scintillation counting method
Sigma non-opioid intracellular receptor 1, sequence (Q60492 whole entry): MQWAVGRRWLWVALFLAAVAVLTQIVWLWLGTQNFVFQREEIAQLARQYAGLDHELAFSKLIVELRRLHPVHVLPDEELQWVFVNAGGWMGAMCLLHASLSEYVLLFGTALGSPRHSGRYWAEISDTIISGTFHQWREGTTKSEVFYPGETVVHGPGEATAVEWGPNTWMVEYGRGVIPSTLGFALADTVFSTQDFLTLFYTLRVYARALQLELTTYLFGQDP

[3] = molecular target: Kappa-type opioid receptor (Cavia porcellus, UniProt P41144); assay: Displacement of [3H]U-69,593 from KOR in guinea pig brain membranes incubated for 120 mins by scintillation counting method
Kappa-type opioid receptor, sequence (P41144 whole entry): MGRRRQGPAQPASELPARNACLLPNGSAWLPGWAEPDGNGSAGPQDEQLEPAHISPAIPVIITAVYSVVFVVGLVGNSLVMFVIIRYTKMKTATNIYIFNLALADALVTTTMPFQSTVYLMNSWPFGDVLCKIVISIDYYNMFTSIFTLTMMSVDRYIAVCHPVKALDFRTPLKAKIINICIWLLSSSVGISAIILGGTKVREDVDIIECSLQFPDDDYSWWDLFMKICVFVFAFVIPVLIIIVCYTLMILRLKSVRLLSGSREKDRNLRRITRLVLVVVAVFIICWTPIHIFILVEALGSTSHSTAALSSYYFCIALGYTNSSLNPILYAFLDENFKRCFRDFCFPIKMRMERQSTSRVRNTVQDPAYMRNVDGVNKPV

[4] = molecular target: Delta-type opioid receptor (Rattus norvegicus, UniProt P33533); assay: Displacement of [3H]DPDPE from DOR in rat brain membranes incubated for 120 mins by scintillation counting method
Delta-type opioid receptor, sequence (P33533 whole entry): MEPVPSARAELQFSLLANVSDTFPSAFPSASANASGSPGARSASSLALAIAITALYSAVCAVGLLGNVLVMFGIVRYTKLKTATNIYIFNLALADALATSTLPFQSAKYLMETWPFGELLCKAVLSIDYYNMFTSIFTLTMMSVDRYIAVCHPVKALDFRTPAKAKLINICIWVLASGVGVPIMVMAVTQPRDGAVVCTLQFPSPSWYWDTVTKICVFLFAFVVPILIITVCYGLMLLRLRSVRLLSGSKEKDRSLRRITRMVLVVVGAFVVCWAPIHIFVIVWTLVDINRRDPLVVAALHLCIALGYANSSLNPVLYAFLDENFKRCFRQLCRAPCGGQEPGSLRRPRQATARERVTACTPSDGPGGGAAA

Mu-type opioid receptor [5] = molecular target: Mu-type opioid receptor (Homo sapiens, UniProt P35372); assay: Agonist activity at human MOR expressed in CHOK1 cells assessed as reduction in forskolin-induced intracellular cAMP increase after 45 mins by HTRF analysis
Mu-type opioid receptor (Homo sapiens, UniProt P35372), sequence (P35372 whole entry): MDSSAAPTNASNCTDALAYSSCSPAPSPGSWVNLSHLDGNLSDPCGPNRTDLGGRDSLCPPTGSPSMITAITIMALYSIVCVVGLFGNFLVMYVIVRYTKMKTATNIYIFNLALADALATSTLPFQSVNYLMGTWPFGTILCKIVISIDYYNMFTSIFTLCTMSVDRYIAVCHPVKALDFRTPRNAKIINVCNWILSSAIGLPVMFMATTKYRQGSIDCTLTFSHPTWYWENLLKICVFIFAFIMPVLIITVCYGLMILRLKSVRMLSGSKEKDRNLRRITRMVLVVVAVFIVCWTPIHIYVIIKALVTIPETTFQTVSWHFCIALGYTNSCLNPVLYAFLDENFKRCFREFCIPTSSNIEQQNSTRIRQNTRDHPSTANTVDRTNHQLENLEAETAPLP

Mu-type opioid receptor [6] = molecular target: Mu-type opioid receptor (Cavia porcellus, UniProt P97266); assay: Displacement of [3H]DAMGO from MOR in guinea pig brain membranes incubated for 120 mins by scintillation counting method
Mu-type opioid receptor (Cavia porcellus, UniProt P97266), sequence (P97266 whole entry): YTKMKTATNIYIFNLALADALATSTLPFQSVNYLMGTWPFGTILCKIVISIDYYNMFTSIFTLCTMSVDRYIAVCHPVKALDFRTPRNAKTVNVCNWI

Structure (SMILES) | Ki [1] [nM] | Ki [2] [nM] | also measured
Cc1ccc(CNC2CCC3(CC2)O[C@H](CCF)Cc2ccccc23)c(C)c1 (stereo partly specified) | 302 | > 1000 | 
CCOC(=O)C[C@@H]1Cc2ccccc2C2(CCC(NCc3ccc(C)cc3C)CC2)O1 (stereo partly specified) |  | > 1000 | 
CCOC(=O)C[C@H]1Cc2ccccc2C2(CCC(N3CCN(C4CCCCC4)CC3)CC2)O1 (stereo partly specified) |  | 12 | Ki [3]: > 1000 nM; Ki [4]: > 1000 nM; EC50 (Mu-type opioid receptor [5]): > 10000 nM
COc1cc2c(cc1OC)CN(C1CCC3(CC1)O[C@H](CCO)Cc1ccccc13)CC2 (stereo partly specified) | > 1000 | > 1000 | 
FCC[C@@H]1Cc2ccccc2C2(CCC(N3CCN(C4CCCCC4)CC3)CC2)O1 (stereo partly specified) |  | 12 | Ki (Mu-type opioid receptor [6]): > 1000 nM; Ki [3]: > 1000 nM; Ki [4]: > 1000 nM
COc1cc2c(cc1OC)CN(C1CCC3(CC1)O[C@@H](CCF)Cc1ccccc13)CC2 (stereo partly specified) | 505 | > 1000 | 
CCOC(=O)C[C@H]1Cc2ccccc2C2(CCC(N3CCc4cc(OC)c(OC)cc4C3)CC2)O1 (stereo partly specified) |  | > 1000 | 
OCC[C@H]1Cc2ccccc2C2(CCC(N3CCN(C4CCCCC4)CC3)CC2)O1 (stereo partly specified) | 505 |  | 
O[C@H]1Cc2ccccc2C2(CCC(N3CCN(C4CCCCC4)CC3)CC2)O1 (stereo partly specified) |  |  | Ki (Mu-type opioid receptor [6]): > 1000 nM; Ki [4]: > 1000 nM; EC50 (Mu-type opioid receptor [5]): > 10000 nM
FCC[C@H]1Cc2ccccc2C2(CCC(N3CCN(C4CCCCC4)CC3)CC2)O1 (stereo partly specified) |  |  | Ki [3]: > 1000 nM
CO[C@@H]1Cc2ccccc2C2(CCC(NCc3ccccc3)CC2)O1 (stereo partly specified) | > 1000 |  | 
CO[C@H]1Cc2ccccc2C2(CCC(NCc3ccccc3)CC2)O1 (stereo partly specified) | > 1000 |  | 
CO[C@H]1Cc2ccccc2C2(CCC(NCc3ccc(C)cc3C)CC2)O1 (stereo partly specified) |  | > 1000 | 
COc1cc2c(cc1OC)CN(C1CCC3(CC1)O[C@@H](OC)Cc1ccccc13)CC2 (stereo partly specified) |  | > 1000 | 
Cc1ccc(CNC2CCC3(CC2)O[C@@H](O)Cc2ccccc23)c(C)c1 (stereo partly specified) |  | > 1000 | 
O[C@@H]1Cc2ccccc2C2(CCC(N3CCN(C4CCCCC4)CC3)CC2)O1 (stereo partly specified) | 302 |  | 
COc1cc2c(cc1OC)CN(C1CCC3(CC1)O[C@@H](O)Cc1ccccc13)CC2 (stereo partly specified) | > 1000 | > 1000 | 
CCOC(=O)C[C@@H]1Cc2ccccc2C2(CCC(N3CCN(C4CCCCC4)CC3)CC2)O1 (stereo partly specified) |  | 12 | 
CCOC(=O)C[C@@H]1Cc2ccccc2C2(CCC(N3CCc4cc(OC)c(OC)cc4C3)CC2)O1 (stereo partly specified) | > 1000 | > 1000 | 
Cc1ccc(CNC2CCC3(CC2)O[C@H](CCO)Cc2ccccc23)c(C)c1 (stereo partly specified) |  | > 1000 | 
COc1cc2c(cc1OC)CN(C1CCC3(CC1)O[C@@H](CCO)Cc1ccccc13)CC2 (stereo partly specified) | > 1000 | > 1000 | 
Cc1ccc(CNC2CCC3(CC2)O[C@@H](CCF)Cc2ccccc23)c(C)c1 (stereo partly specified) | > 1000 |  | 
COc1cc2c(cc1OC)CN(C1CCC3(CC1)O[C@H](CCF)Cc1ccccc13)CC2 (stereo partly specified) | > 1000 |  | 
CO[C@@H]1Cc2ccccc2C2(CCC(NCCCc3cn(-c4ccc(F)cc4)c4ccccc34)CC2)O1 (stereo partly specified) | > 1000 | > 1000 | 
CO[C@H]1Cc2ccccc2C2(CCC(NCCCc3cn(-c4ccc(F)cc4)c4ccccc34)CC2)O1 (stereo partly specified) | > 1000 |  | 
CO[C@@H]1Cc2ccccc2C2(CCC(NC3CCc4ccccc4CC3)CC2)O1 (stereo partly specified) |  | > 1000 | 
